Data reported in patent publication US9920010B2, “CXCR7 receptor modulators” (IDORSIA PHARMACEUTICALS LTD, priority 2013, dated 2018).
pEC50: −log10 of the molar value.

molecular target: T1, CXCR7 (Homo sapiens, UniProt P25106); experiment: PathHunter CHO-K1 CXCR7 b-arrestin recruitment assay (CXCR7 agonistic activity); assay type: cell-based; conditions: PathHunter CHO-K1 CXCR7 b-arrestin cell line
T1 construct: host or cells: CHO-K1 (PathHunter CHO-K1 CXCR7 b-arrestin cell line, stably transfected)
T1 sequence (P25106 whole entry): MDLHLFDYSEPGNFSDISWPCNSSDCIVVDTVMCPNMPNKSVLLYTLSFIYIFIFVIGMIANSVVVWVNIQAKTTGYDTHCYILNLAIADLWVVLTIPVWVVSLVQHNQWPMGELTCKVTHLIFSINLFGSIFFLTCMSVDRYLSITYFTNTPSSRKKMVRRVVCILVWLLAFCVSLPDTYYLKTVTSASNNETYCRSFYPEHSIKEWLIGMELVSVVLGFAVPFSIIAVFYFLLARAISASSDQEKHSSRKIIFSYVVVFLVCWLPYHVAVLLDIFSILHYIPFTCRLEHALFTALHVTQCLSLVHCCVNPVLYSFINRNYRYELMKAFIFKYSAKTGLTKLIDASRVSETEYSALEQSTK
T1 sequence (P32121 whole entry partner): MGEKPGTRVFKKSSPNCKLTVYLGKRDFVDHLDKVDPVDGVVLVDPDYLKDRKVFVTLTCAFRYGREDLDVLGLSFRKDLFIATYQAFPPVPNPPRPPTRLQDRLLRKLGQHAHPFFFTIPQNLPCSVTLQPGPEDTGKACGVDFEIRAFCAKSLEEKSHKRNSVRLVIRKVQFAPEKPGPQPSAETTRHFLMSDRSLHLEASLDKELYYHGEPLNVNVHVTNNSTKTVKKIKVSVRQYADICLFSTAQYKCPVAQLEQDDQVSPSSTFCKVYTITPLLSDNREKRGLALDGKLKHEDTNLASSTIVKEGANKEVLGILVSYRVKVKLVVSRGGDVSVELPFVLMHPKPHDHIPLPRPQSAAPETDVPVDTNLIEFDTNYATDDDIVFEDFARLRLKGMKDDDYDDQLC
Method in brief: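 Stable CHO-K1 line with C-terminally ProLink-tagged CXCR7 and β-arrestin 2–EA fusion; β-arrestin recruitment restores β-gal activity, read by chemiluminescence after 1 h RT detection. Cells seeded 24 h, starved in OPTIMEM 3–4 h, exposed to compounds 90 min at 37 °C in HBSS/HEPES/BSA. Geometric-mean EC50 from repeated measurements.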

Point of comparison: `CCN1CCc2cccc(NCC(=O)N(CCN(C)C)Cc3ncccc3Cl)c2C1` [compound 511, N-(3-Chloro-pyridin-2-ylmethyl)-N-(2-dimethylamino-ethyl)-2-(2-ethyl-1,2,3,4-tetrahydro-isoquinolin-8-ylamino)-acetamide], pEC50 7.54. Against it:
- C#CCOC(=O)N1CCc2c(cccc2NCC(=O)N(CCNC)Cc2ccccc2C(F)(F)F)C1 [compound 396, 5-({[(2-Methylamino-ethyl)-(2-trifluoromethyl-benzyl)-carbamoyl]-methyl}-amino)-3,4-dihydro-1H-isoquinoline-2-carboxylic acid prop-2-ynyl ester] — within 0.2 log units, 7.42
- CN(C)CCN(Cc1ccccc1C(F)(F)F)C(=O)CNc1cccc2c1CN(CC1CC1)CC2 [compound 475] — 0.62 log units lower, 6.92
- CN(C)CCN(Cc1ccccc1C(F)(F)F)C(=O)NCc1cccc2c1CCN(CC1CC1)C2 [Example 568, 3-(2-Cyclopropylmethyl-1,2,3,4-tetrahydro-isoquinolin-5-ylmethyl)-1-(2-dimethylamino-ethyl)-1-(2-trifluoromethyl-benzyl)-urea] — the same, 7.54
- CCN1CCc2cccc(NCC(=O)N(CCc3ccccc3)CCN(C)C)c2C1 [compound 542] — 0.59 log units lower, 6.95
- CN(C)CCN(Cc1ccccc1)C(=O)CNc1cccc2c1CCN(CC1CC1)C2 [compound 110, N-Benzyl-2-(2-cyclopropylmethyl-1,2,3,4-tetrahydro-isoquinolin-5-ylamino)-N-(2-dimethylamino-ethyl)-acetamide] — 0.31 log units higher, 7.85
- CCC(=O)N1CCc2c(cccc2NCC(=O)N(CCN(C)C)Cc2ccc(F)cc2)C1 [Example 22, N-(2-Dimethylamino-ethyl)-N-(4-fluoro-benzyl)-2-(2-propionyl-1,2,3,4-tetrahydro-isoquinolin-5-ylamino)-acetamide] — 0.44 log units lower, 7.10
- CN(C)CCN(Cc1ccccc1Cl)C(=O)/C=C/c1cccc2c1CCN(CC1CC1)C2 [compound 146, (E)-N-(2-Chloro-benzyl)-3-(2-cyclopropylmethyl-1,2,3,4-tetrahydro-isoquinolin-5-yl)-N-(2-dimethylamino-ethyl)-acrylamide] — 1.16 log units higher, 8.70
- CCN1CCc2c(/C=C/C(=O)N(CCN(C)C)Cc3ccccc3C(F)(F)F)cccc2C1 [compound 149, (E)-N-(2-Dimethylamino-ethyl)-3-(2-ethyl-1,2,3,4-tetrahydro-isoquinolin-5-yl)-N-(2-trifluoromethyl-benzyl)-acrylamide] — 1.68 log units higher, 9.22
- CN(C)CCN(Cc1ccccc1C(F)(F)F)C(=O)CNc1cccc2c1CN(C(=O)C1CC1)CC2 [compound 560, 2-(2-Cyclopropanecarbonyl-1,2,3,4-tetrahydro-isoquinolin-8-ylamino)-N-(2-dimethylamino-ethyl)-N-(2-trifluoromethyl-benzyl)-acetamide] — 0.76 log units higher, 8.30
- CNCCN(Cc1ncccc1C(F)(F)F)C(=O)CNc1cccc2c1CCN(C(=O)CC(C)C)C2 [compound 416] — 0.47 log units lower, 7.07
- CN(C)CCN(Cc1ccc(OC(F)(F)F)cc1)C(=O)CNc1cccc2c1CCN(CC1CC1)C2 [Example 228, 2-(2-Cyclopropylmethyl-1,2,3,4-tetrahydro-isoquinolin-5-ylamino)-N-(2-dimethylamino-ethyl)-N-(4-trifluoromethoxy-benzyl)-acetamide] — 0.61 log units lower, 6.93
- COC(=O)CN1CCc2c(cccc2NCC(=O)N(CCN(C)C)Cc2ccccc2C(F)(F)F)C1 [Example 360, [5-({[(2-Dimethylamino-ethyl)-(2-trifluoromethyl-benzyl)-carbamoyl]-methyl}-amino)-3,4-dihydro-1H-isoquinolin-2-yl]-acetic acid methyl ester] — within 0.2 log units, 7.52
- CC(c1ccccc1C(F)(F)F)N(CCN(C)C)C(=O)CNc1cccc2c1CCN(CC1CC1)C2 (racemic) [Example 58, rac-2-(2-Cyclopropylmethyl-1,2,3,4-tetrahydro-isoquinolin-5-ylamino)-N-(2-dimethylamino-ethyl)-N-[1-(2-trifluoromethyl-phenyl)-ethyl]-acetamide] — 0.26 log units higher, 7.80
